Assay results from patent US10028961B2, “Therapeutically active compounds and their methods of use” (AGIOS PHARMACEUTICALS, INC., priority 2013, dated 2018).

How the values were obtained:
[1] = target: IDH1 wt/IDH1 R132H heterodimer (Homo sapiens (Human), UniProt O75874, R132H); experiment: In vitro assay for IDH1m R132H inhibitors, IDH1 wt/IDH1 R132H heterodimer, NADPH depletion (diaphorase/resazurin); assay type: biochemical; conditions: IDH1 wt/IDH1 R132H heterodimer, 300 μM NADP (saturated); read-out: IDH1 wt/R132H NADPH/NADP IC50 saturated
Chain of IDH1 wt/IDH1 R132H heterodimer (O75874 whole entry R132H): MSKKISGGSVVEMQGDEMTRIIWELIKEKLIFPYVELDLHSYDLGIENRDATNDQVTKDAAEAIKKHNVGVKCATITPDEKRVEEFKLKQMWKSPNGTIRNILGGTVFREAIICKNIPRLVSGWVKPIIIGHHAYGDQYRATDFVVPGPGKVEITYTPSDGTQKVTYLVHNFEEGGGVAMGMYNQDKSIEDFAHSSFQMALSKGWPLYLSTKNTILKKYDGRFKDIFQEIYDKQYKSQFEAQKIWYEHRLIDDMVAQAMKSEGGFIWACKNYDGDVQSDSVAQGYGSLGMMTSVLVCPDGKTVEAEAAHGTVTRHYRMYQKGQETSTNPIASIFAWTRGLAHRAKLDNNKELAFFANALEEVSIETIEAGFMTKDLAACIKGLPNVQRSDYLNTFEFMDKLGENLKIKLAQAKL
Chain of IDH1 wt/IDH1 R132H heterodimer (O75874 whole entry, stated change not applied): as the sequence (O75874 whole entry R132H) above, with H132R counted along it
Protocol: The following describes the experimental procedures that can be used to obtain data on columns 2 and 4 of Table 4 and column 2 of Table 5.
In the primary reaction, the reduction of α-KG acid to 2-HG is accompanied by a concomitant oxidation of NADPH to NADP. The amount of NADPH remaining at the end of the reaction time is measured in a secondary diaphorase/resazurin reaction in which the NADPH is consumed in a 1:1 molar ratio with the conversion of resazurin to the highly fluorescent resorufin.
The mixture of compound, enzyme, and cofactor is pre-incubated at room temperature for 1 hr prior to the addition of alpha-ketoglutarate. To perform the secondary reaction, 10 uL of 1× buffer containing 36 μg/ml diaphorase and […] resazurin is added to the primary reaction and incubated for a further 5 minutes at 25° C. […] Compounds or compound dilutions are prepared in 100% DMSO concentration and diluted 1:50 into the final reaction. […] IC50s are determined.
IDH1 or IDH2 wildtype (wt) and mutant heterodimers are expressed and purified by methods known in the art. […] Co-expression of IDH1wt-his and IDH1R132C-flag is carried out in sf9 insect cells. Cells (25 g) are resuspended in 250 ml of 50 mM Tirs, 500 mM NaCl, pH7.4, at 4° C. with stirring. Cells are disrupted with 4 passes through an M-Y110 Micro fluidizer (Microfluidics) set to 500 psi, and then centrifuged at 22,000 rcf for 20 min at 4° C. The supernatant is harvested and loaded at 15 cm/h on a Histrap FF 5*1 ml column (GE) which is equilibrated with 50 mM Tirs, 500 mM NaCl, pH7.4. Host cell contaminants are removed by washing the column with equilibration buffer followed by equilibration buffer containing 20 mM imidazole and 60 mM imidazole to baseline. IDH1wt-his homodimer and IDH1wt-his/IDH1R132C-flag are eluted by equilibration buffer containing 250 mM imidazole. Fractions eluted by 250 mM imidazole are pooled together and loaded at 15 cm/h onto a column pre-packed with 10 ml ANTI-FLAG® M2 Affinity Gel (Sigma), the column is equilibrated with 50 mM Tris, 500 mM NaCl, pH7.4. After washing with equilibration buffer, IDH1wt-his/IDH1R132C-flag heterodimer is eluted by equilibration buffer containing flag peptide (0.2 mg/ml). Aliquots of IDH1wt-his/IDH1R132C-flag are flash frozen in liquid N2 and stored at −80° C. Same conditions are used for the purification of IDH1wt-his/IDH1R132H-flag.

[2] = tested on: Neurosphere cells (TS603); experiment: Cellular assay for IDH1m R132H inhibitors, 2-HG by LC-MS in neurosphere cells (TS603); assay type: cell-based; conditions: 2-HG in media at 48 hours
Protocol: Cellular Assay for IDH1m R132H Inhibitors.
The following describes the experimental procedures that can be used to obtain data in column 4 of Table 5.
Neurosphere cells (TS603) are grown at 37 C in 5% CO2 in Stem Cell Technologies NeuroCult™ NS-A media supplemented with 1% Primocin, 1% Normocin, 0.0002% Heparin, 20 ng/mL EGF and 10 ng/mL bFGF. Cells are harvested, pelleted and resuspended in Accumax for cell dissociation and counting. Cells are counted and then resuspended in NeuroCult media with 2× heparin, EGF and bFGF at 4 million cells/10 mL media. 100 μl of cell solution are plated in each well of a 96 well with the exception of columns 1 and 12. Columns 1 and 12 contain 200 μL PBS. Compound dose responses are set up at a 2× concentration in Neurocult media without heparin, EGF and bFGF. The final concentration of DMSO is 0.25%. DMSO only control wells are plated in row H. The plates are then placed in the incubator for 48 hours. At 48 hours, 100 μl of media is removed from each well and analyzed by LC-MS for 2-HG concentrations. The cell plate is placed back in the incubator for another 24 hours. At 72 hours post compound addition, 10 mL/plate of Promega Cell Titer Glo reagent is thawed and mixed. The cell plate is removed from the incubator and allowed to equilibrate to room temperature. Then 100 μl of Promega Cell Titer Glo reagent is added to each well of media. The cell plate is then placed on an orbital shaker for 10 minutes and then allowed to sit at room temperature for 20 minutes. The plate is then read for luminescence with an integration time of 500 ms.

IDH2 R140Q = IDH2 R140Q (Homo sapiens (Human), UniProt P48735, R140Q); experiment: In vitro assay for IDH2m R140Q inhibitors, cofactor depletion assay; assay type: biochemical; conditions: IDH2 R140Q enzyme
Chain of IDH2 R140Q (P48735 40-452 R140Q): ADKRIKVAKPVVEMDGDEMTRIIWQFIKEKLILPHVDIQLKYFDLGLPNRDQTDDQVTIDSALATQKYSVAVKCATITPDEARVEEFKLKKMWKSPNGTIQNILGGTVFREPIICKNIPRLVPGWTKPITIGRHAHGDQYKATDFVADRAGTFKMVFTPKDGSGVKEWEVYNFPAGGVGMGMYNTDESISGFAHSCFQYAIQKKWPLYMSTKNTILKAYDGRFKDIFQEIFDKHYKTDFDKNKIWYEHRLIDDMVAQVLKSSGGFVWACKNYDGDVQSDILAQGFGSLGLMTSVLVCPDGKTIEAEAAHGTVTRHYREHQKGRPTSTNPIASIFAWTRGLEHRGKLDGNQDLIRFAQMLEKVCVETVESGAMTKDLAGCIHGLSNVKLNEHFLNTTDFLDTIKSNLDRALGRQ
Text: The following describes the experimental procedures used to obtain data on column 7 of Table 4.
The reaction is terminated by the addition of a second enzyme, diaphorase, and a corresponding substrate, resazurin. Diaphorase reduces resazurin to the highly fluorescent resorufin with the concomitant oxidation of NADPH to NADP, both halting the IDH2 reaction by depleting the available cofactor pool and facilitating quantitation of the amount of cofactor remaining after a specific time period through quantitative production of an easily detected fluorophore.
The test compound is then incubated for one hour at room temperature with the enzyme; before starting the IDH2 reaction with the addition of 10 μl of substrate mix containing 4 μM NADPH and 1.6 mM α-KG in the buffer described above. After a further 16 hours of incubation at room temperature, the reaction is halted and the remaining NADPH measured through conversion of resazurin to resorufin by the addition of 25 μl Stop Mix (36 μg/ml diaphorase enzyme and 60 μM resazurin; in buffer).

[3] = tested on: U87MG pLVX-IDH2 R140Q-neo cells; experiment: U87MG pLVX-IDH2 R140Q-neo cell based assay, 2-HG by LC-MS; conditions: Homo sapiens, U-87 MG

SMILES | IC50 [1] [nM] | IC50 [2] [nM] | IC50 (IDH2 R140Q) [nM] | IC50 [3] [nM]
N#CC1(c2cc(Nc3nc(N[C@H]4CCC(F)(F)C4)nc(-c4ccnc(C(F)(F)F)n4)n3)ccn2)CC1 [Compound 341] | 100 to 1000 | < 50 | < 50 | < 50
N#CC1(c2cc(Nc3nc(N[C@@H]4CCC(F)(F)C4)nc(-c4ccnc(C(F)(F)F)n4)n3)ccn2)CC1 [Compound 342] | 100 to 1000 | < 50 | < 50 | < 50
C[C@@H](Nc1nc(N[C@H](C)C(F)(F)F)nc(-c2ccnc(C(F)(F)F)n2)n1)C(F)(F)F [Compound 344] | 50 to 100 | < 50 | 50 to 100 | 50 to 100
CC[C@H](Nc1nc(N[C@@H](CC)C(F)(F)F)nc(-c2ccnc(C(F)(F)F)n2)n1)C(F)(F)F [Compound 345] | < 50 | < 50 | 100 to 1000 | 100 to 1000
CC[C@H](Nc1nc(N[C@@H](CC)C(F)(F)F)nc(-c2cccc(C(F)(F)F)n2)n1)C(F)(F)F [Compound 346] | < 50 | < 50 | < 50 | < 50
C[C@H](Nc1nc(Nc2ccnc(C3(C#N)CC3)c2)nc(-c2cccc(C(C)(F)F)n2)n1)C(F)(F)F [Compound 347] | < 50 | < 50 | < 50 | < 50
C[C@@H](Nc1nc(Nc2ccnc(C3(C#N)CC3)c2)nc(-c2cccc(C(C)(F)F)n2)n1)C(F)(F)F [Compound 348] | < 50 | < 50 | < 50 | < 50
C[C@H](Nc1nc(Nc2ccnc(C3(C#N)CC3)c2)nc(-n2ccc(C(F)(F)F)n2)n1)C(F)(F)F [Compound 349] | < 50 | < 50 | < 50 | < 50
C[C@H](Nc1nc(Nc2ccnc(C3(C#N)CC3)c2)nc(-c2cccc(C(F)(F)F)n2)n1)C(F)(F)F [Compound 351] | < 50 | < 50 | < 50 | < 50
C[C@@H](Nc1nc(Nc2ccnc(C3(C#N)CC3)c2)nc(-c2cccc(C(F)(F)F)n2)n1)C(F)(F)F [Compound 352] | < 50 | < 50 | < 50 | < 50
FC1(F)CCC(Nc2nc(Nc3ccnc(C(F)(F)F)c3)nc(-c3nc(C(F)(F)F)cs3)n2)C1 (stereo not drawn) [Compound 353] | < 50 | < 50 | < 50 | < 50
FC(F)(F)c1cccc(-c2nc(NCC3CC3(F)F)nc(NCC3CC3(F)F)n2)n1 (stereo not drawn) [Compound 354] | 50 to 100 | < 50 | < 50 | < 50
CC(F)(F)c1cc(Nc2nc(N[C@@H]3CCC(F)(F)C3)nc(-c3cccc(C(F)(F)F)n3)n2)ccn1 [Compound 355] | < 50 | < 50 | < 50 | < 50
C[C@H](Nc1nc(Nc2ccnc(C(F)(F)F)c2)nc(-n2ccc(C(F)(F)F)n2)n1)C(F)(F)F [Compound 356] | < 50 | < 50 | < 50 | < 50
CC(F)(F)c1csc(-c2nc(NC3CCC(F)(F)CC3)nc(NC3CCC(F)(F)CC3)n2)n1 [Compound 357] | 50 to 100 | < 50 | < 50 | < 50
CC(F)(F)c1cc(Nc2nc(NC3CC(F)(F)C3)nc(-c3cccc(C(F)(F)F)n3)n2)ccn1 [Compound 358] | < 50 | < 50 | < 50 | < 50
C[C@@H](Nc1nc(Nc2ccnc(-c3ccccc3)c2)nc(-c2cccc(C(F)(F)F)n2)n1)C(F)(F)F [Compound 359] | < 50 | < 50 | < 50 | < 50
CC(F)(F)c1cc(Nc2nc(N[C@H]3CCC(F)(F)C3)nc(-c3cccc(C(F)(F)F)n3)n2)ccn1 [Compound 360] | < 50 | < 50 | < 50 | < 50
